Data on 3 compounds can be found in patent US10098895B2, “Treatment of symptoms related to neurodegenerative disorders through pharmacological dermal activation of cranial nerves” (GLIA, LLC, priority 2016, dated 2018).

Series [1] concerns Parkinson's disease symptoms. The experiment in a line: Example 1: Parkinson's disease patient, dermal application to forehead and ear conchae. The procedure: A person was diagnosed with the early stages of Parkinson's disease in December of 2014. Their symptoms included tremors in the hands, impaired short term memory, slow and uncontrolled rigid movements while walking and eating, and declining ocular blink function. The patient also had dry eyes with hyper-tearing, burning, and itching.
The patient was also treated with progesterone 1% on the forehead initially once daily beginning in March 2015. […] The progesterone was applied as needed for about a year.
Instead of the prescribed regimen, the patient began dermal application of dronabinol 1.25 mg 2 times daily to three sites: (i) the forehead, (ii) the concha of the left ear, and (iii) the concha of the right ear. Each dose of 1.25 mg was divided equally between the three application sites. This treatment regimen began Friday Jun. 10, 2016 concurrent with the discontinuation of rasagiline.
In February 2017, the patient, who suffers from debilitating moderate spinal stenosis, started taking Azilect (rasagiline) and carbidopa-levodopa to improve their walking and flexibility. […] The patient decided that, together with the prescribed medications, they would switch from dronabinol to topical testosterone gel applied to the forehead and ear conchae to see if this would impact their longstanding low testosterone levels.
In March 2017, topical testosterone gel application was instituted as an adjunct to is the prescribed Azilect and carbidopa-levodopa.
The patient voluntarily stopped topical testosterone for 3 weeks in June 2017. […] At the end of 3 weeks, topical testosterone was re-instituted as an adjunct to the prescribed medications.

In another series the test system is essential tremor. Put plainly: Example 7: essential tremor subject with contact lens discomfort. The class given is in vivo, human. The procedure: A person developed persistent right hand tremors of a kinetic (non-resting) type that has been continuous over the past 6 years. […] This condition had not worsened over time. […] Initially, their doctor thought that these symptoms were stress related and they have been taking 2.5 mg of escitalopram for over 6 years. […] The subject was not on hormone replacement therapy or any other medication.
Concomitantly, the subject suffered from uncomfortable eyes, with a sticky burning sensation and development of blurred vision after about 5-6 hours of contact lens wear. For the past 3 years, the subject was administered 1% progesterone gel (1 mg per day) by dermal application to the forehead once per night. The progesterone gel prolonged comfortable contact lens wear time with sustained visual acuity from 5-6 hours to greater than 15 hours. […] After 2 years of treatment, the benefits of progesterone dermal application persisted for at least 3 days without treatment. There was no effect of the progesterone on their tremor symptoms.
After allowing for washout of progesterone for 3 days, they began forehead application of 0.5-0.75 mg dronabinol once daily at night.
The dronabinol administration regimen was altered by dividing equally the once daily dose of 0.5-0.75 mg dronabinol between the conchae of the left ear, the conchae of the right ear, and the forehead. […] Comfortable contact lens wear, with ease of insertion and removal, and visual acuity extends for 15 hours or more after dronabinol application.
Contact lens comfort wear duration was greater than 15 hours.
In April 2017, the subject, while still being treated with 1% progesterone applied to the forehead, instituted a once-daily low dose topical testosterone applied to the forehead and ear conchae to determine if doing so would produce a beneficial impact on further tremor reduction and in particular essential tremor triggered by caffeine consumption. […] They stopped the treatment to assess whether the tremor would return to pre-testosterone treatment levels. As of August 2017, the subject is without noticeable tremor. The caffeine trigger for tremor onset, which had been recognized throughout all treatments, has not re-appeared since the completion of the 4-week testosterone treatment. The subject continues on low-dose progesterone 1% applied daily to the forehead as the only treatment.

Series [2] concerns Parkinson's disease symptoms. The experiment in a line: Example 2: Parkinson's disease subject, topical progesterone and testosterone. The class given is in vivo, human. The source says: A person was diagnosed with Parkinson's disease in August of 2015. Notable symptoms include both resting and action tremor of the left hand and fingers, forearm, and, to a lesser extent, the right hand and the left leg. Handwriting and computer keyboard work were difficult. They had ocular symptoms associated with the disease, including dry eye disease with moderate to severe burning and grittiness, rapid blink rate, and partial blinking. They used artificial tears constantly in an attempt to alleviate the ocular symptoms. They had not been on any Parkinson's medications. Their Parkinson's tremor followed an “on-off” cycle that correlated with their stress levels, the “on” cycle being times with low stress and few symptoms, and the “off” cycle induced by stress showing an increase in symptoms.
In late February 2017, the subject started applying single daily doses of 0.125% testosterone to the forehead and ear conchae. By the third day of treatment, the subject was tremor-free for periods of 4-6 hours, and the “on” part of the cycle was more frequent. […] The dose of testosterone was increased to 0.2% once daily in early April.
In July 2017, testosterone application was stopped after a taper to evaluate its effects. […] On Aug. 17, 2017, they reported extreme anxiety.
That same afternoon, the subject applied 0.2% testosterone to their forehead and ear conchae, and the next day reported less anxiety and more “on” cycles. By Aug. 20, 2017, they reported having stabilized on the once daily applications with a 60% or greater increase in “on” periods. On August 28, they reported going 9 hours without tremors and leg spasms. On Aug. 30, 2017, the subject was able to walk 8 miles and exercised in between. They described themself as feeling 100%.

Where [3] appears, read: prescribed Azilect (rasagiline) together with carbidopa-levodopa.
Setting [4] is: once-daily low dose topical testosterone to forehead and ear conchae, 4 weeks, with 1% progesterone to forehead.

For `C#CCN[C@@H]1CCc2ccccc21` [Azilect, rasagiline], in series [1] (setting [3]), the motor function result is recorded as “some motor function improvement” and the tremor entry is given as “no more improved than when they were applying dronabinol alone”.
For the compound `CN(C)CCC[C@@]1(c2ccc(F)cc2)OCc2cc(C#N)ccc21` [escitalopram], the tremor entry in the series on essential tremor (2.5 mg of escitalopram for over 6 years) is on record as “no resolution of the tremor”.
On to `C[C@]12CC[C@H]3[C@@H](CCC4=CC(=O)CC[C@@]43C)[C@@H]1CC[C@@H]2O` [testosterone], for which, in the series with essential tremor (setting [4]), the “caffeine trigger of essential tremor” value is “near complete resolution of the caffeine trigger”; the “reduction in tremor amplitude and frequency over the original baseline” value was at most 90%. Further, in series [1] (testosterone resumed after a three week hiatus), the “overall functioning after resumption” value is on record as “returned immediately to the improved levels”. For the same compound, the “mental stability, reported by wife” value in series [1] (testosterone to forehead and ears, one-year period up to August 2017) is “very positive impact on their mental stability”. For the same compound, the adverse events result in series [1] (throughout low dose neural cranial treatment) is on record as “no adverse events were noted”. Moreover, the “cognitive and non-motor symptoms” value in series [1] (topical testosterone gel to forehead and ear conchae, adjunct to Azilect and carbidopa-levodopa, by the third day) was “improvement in cognitive and non-motor symptoms”. The “cognitive and emotional function after stopping treatment” value in series [1] (topical testosterone stopped for 3 weeks, within 3 days) is “significant decline in cognitive and emotional function”. The tremor-free days result in series [2] (0.125% testosterone once daily, mid-March) is listed as “two full days tremor-free”. For the same compound, in series [2] (0.125% testosterone single daily doses to forehead and ear conchae), the “tremor amplitude and resolution” value was “the amplitude was less, and the tremors resolved sooner”. Besides, the tremor-free periods in series [2] (0.125% testosterone single daily doses to forehead and ear conchae, by the third day) was 4 to 6 h. The “time without tremors and leg spasms” value in series [2] (0.2% testosterone once daily, August 28) was 9 h. In addition, the “increase in 'on' periods” value in series [2] (0.2% testosterone once daily, by Aug. 20, 2017) is on record as at least 60%. For the same compound, in series [2] (0.2% testosterone re-applied to forehead and ear conchae, next day), the anxiety result is “less anxiety”. The “symptom trend after stopping treatment” value in series [2] (6 weeks of testosterone abstinence) is on record as “downward trend in symptoms to pre-treatment levels”. The “blood total and free testosterone” value in series [2] (July 2017, after topical testosterone 0.125-0.2% once daily) was “mildly elevated total and free testosterone”. The “tremors after stopping treatment” value in series [2] (day 3 of testosterone abstinence) was “tremors were more frequent”. Also, the “stress management, mood, libido” value in series [2] (testosterone 0.2% once daily, through April 2017) is “improved stress management, elevated mood with increase in libido and vaginal lubrication”. Also, the “disease progression, assessed by neurologists” value in series [2] (testosterone administration, no prescribed Parkinson's medications) is recorded as “no disease progression”. Moreover, the negative side effects result in series [2] (topical testosterone, February to July 2017) is “No negative side effects”.
